Assay results published in the supplement of paper PMC11208160.

Assay: recombinant barcode read abundance after kanamycin selection (control-corrected) (log10(CPM+1)); higher = more efficient recombination; sequences stand for … in AGTGCAGAGAAAATCGGCCAGTTTTCTCTGCCTGCAGTCCGCATGCCGT…AGATTTATGCAGCGGACTGCCTTTCTCCCAAAGTGATAAACCGGACAGTATCATGGACCGGTTTTCCCGGTAATCCGTATTTGCAAGGTTGGTTTCACT; site = the 11-nt target
Method in brief: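 Pooled oligos, each joining a target to an IS621 bridge RNA target-binding loop, were cloned and co-electroporated with a donor plasmid into E. coli. Selective plates carried chloramphenicol/ampicillin/kanamycin and 0.1 mM IPTG, while chloramphenicol/ampicillin LB agar served as control, with two replicates of each. Recombination efficiency rests on averaged, control-corrected counts per million of barcodes at recombinant junctions, shown as log10(CPM+1).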
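Also: IS621 recombinase and bridge RNA in Escherichia coli cells.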

Point of comparison: “CGTACCTCTTGGGTTCTAACCTGTTGCTG (site CGTACCTCTAA)”, “recombinant barcode read abundance (log10)” value 0.21. Against it:
- CGGGGTCCTTGGGTTCTAACCTGTTGCTA (site CGGCGTCCTTA) — higher, 0.41
- CGGGGTCCTTGGGTTCTAACCTGTTGCTA (site CGGGGTCCTTA) — higher, 2.5
- CGGGGTCCTTGGGTTCTAACCTGTTGCTA (site CGGTGTCCTTA) — within 0.2 log units, 0.35
- CGGTCATCTTGGGTTCTAACCTGTTGCCT (site CGATCATCTAG) — within 0.2 log units, 0.331
- CGGTCATCTTGGGTTCTAACCTGTTGCCT (site CGCTCATCTAG) — within 0.2 log units, 0.171
- CGGTCATCTTGGGTTCTAACCTGTTGCCT (site CGGTCATCTAG) — higher, 0.537
- CGGTCATCTTGGGTTCTAACCTGTTGCCT (site CGTTCATCTAG) — higher, 0.417
- CGTAAACCTTGGGTTCTAACCTGTTGCGT (site CGTAAACCTAC) — higher, 0.451
- CGTAAACCTTGGGTTCTAACCTGTTGCGT (site CGTCAACCTAC) — within 0.2 log units, 0.0732
- CGTAAACCTTGGGTTCTAACCTGTTGCGT (site CGTGAACCTAC) — within 0.2 log units, 0.159
- CGTAAACCTTGGGTTCTAACCTGTTGCGT (site CGTTAACCTAC) — within 0.2 log units, 0.393
- CGTAAGACTTGGGTTCTAACCTGTTGCCT (site CGTAAGACTAG) — higher, 0.489
- CGTAAGACTTGGGTTCTAACCTGTTGCCT (site CGTCAGACTAG) — within 0.2 log units, 0.265
- CGTAAGACTTGGGTTCTAACCTGTTGCCT (site CGTGAGACTAG) — within 0.2 log units, 0.0483
- CGTAAGACTTGGGTTCTAACCTGTTGCCT (site CGTTAGACTAG) — within 0.2 log units, 0.0104
- CGTACCGCTTGGGTTCTAACCTGTTGCCT (site CCTACCGCTAA) — within 0.2 log units, 0.153
- CGTACCGCTTGGGTTCTAACCTGTTGCCT (site CGTACCGCTAG) — higher, 0.496
- CGTACCTCTTGGGTTCTAACCTGTTGCTC (site CGTACCTCTAA) — within 0.2 log units, 0.056
- CGTACCTCTTGGGTTCTAACCTGTTGCTC (site CGTACCTCTCA) — within 0.2 log units, 0.0772
- CGTACCTCTTGGGTTCTAACCTGTTGCTC (site CGTACCTCTGA) — within 0.2 log units, 0.171
- CGTACCTCTTGGGTTCTAACCTGTTGCTC (site CGTACCTCTTA) — within 0.2 log units, 0.0752
- CGTACCTCTTGGGTTCTAACCTGTTGCTG (site CGTACCTCTCA) — within 0.2 log units, 0.164
- CGTACCTCTTGGGTTCTAACCTGTTGCTG (site CGTACCTCTGA) — within 0.2 log units, 0.0169
- CGTACCTCTTGGGTTCTAACCTGTTGCTG (site CGTACCTCTTA) — within 0.2 log units, 0.0203
- CGTAGCCCTTGGGTTCTAACCTGTTGCGG (site ACATATACTAA) — within 0.2 log units, 0.157
- CGTAGCCCTTGGGTTCTAACCTGTTGCGG (site CGTAGCCCTCC) — higher, 0.691
- CGTAGGGCTTGGGTTCTAACCTGTTGCCG (site AGTAGGGCTCT) — within 0.2 log units, 0.103
- CGTAGGGCTTGGGTTCTAACCTGTTGCCG (site CGTAGGGCTCG) — within 0.2 log units, 0.102
- CGTATAGCTTGGGTTCTAACCTGTTGCCT (site CGTATAGCTAG) — within 0.2 log units, 0.285
- CGTATAGCTTGGGTTCTAACCTGTTGCCT (site CGTGAAGCTAG) — within 0.2 log units, 0.0599
- CGTATATCTTGGGTTCTAACCTGTTGCCT (site CGTATATCTAG) — lower, 0
- CGTATATCTTGGGTTCTAACCTGTTGCCT (site CGTGTAACTAG) — within 0.2 log units, 0.0247
- CGTATCCCTTGGGTTCTAACCTGTTGCTG (site CGTATCCCTCA) — higher, 0.692
- CGTATCCCTTGGGTTCTAACCTGTTGCTG (site CGTCTCCCTAA) — within 0.2 log units, 0.155
- CGTATCTCTTGGGTTCTAACCTGTTGCCT (site CCAATCTCTAG) — within 0.2 log units, 0.063
- CGTATCTCTTGGGTTCTAACCTGTTGCCT (site CGTATCTCTAG) — within 0.2 log units, 0.406
- CGTATGACTTGGGTTCTAACCTGTTGCCT (site AGTATGACTAG) — within 0.2 log units, 0.28
- CGTATGACTTGGGTTCTAACCTGTTGCCT (site CGTATGACTAG) — within 0.2 log units, 0.0395
- CGTATGACTTGGGTTCTAACCTGTTGCCT (site GGTATGACTAG) — within 0.2 log units, 0.103
- CGTATGACTTGGGTTCTAACCTGTTGCCT (site TGTATGACTAG) — within 0.2 log units, 0.05
- CGTCAGCCTTGGGTTCTAACCTGTTGCCT (site CGTCAACCTAG) — within 0.2 log units, 0.0431
- CGTCAGCCTTGGGTTCTAACCTGTTGCCT (site CGTCACCCTAG) — within 0.2 log units, 0.0486
- CGTCAGCCTTGGGTTCTAACCTGTTGCCT (site CGTCAGCCTAG) — within 0.2 log units, 0.22
- CGTCAGCCTTGGGTTCTAACCTGTTGCCT (site CGTCATCCTAG) — within 0.2 log units, 0.0681
- CGTCGACCTTGGGTTCTAACCTGTTGCAT (site ACCTCTTCTTA) — within 0.2 log units, 0.0126
- CGTCGACCTTGGGTTCTAACCTGTTGCAT (site CGTCGACCTAT) — within 0.2 log units, 0.128
- CGTCGGACTTGGGTTCTAACCTGTTGCAG (site CGTCGGACTCT) — within 0.2 log units, 0.3
- CGTCGGACTTGGGTTCTAACCTGTTGCAG (site TAGTTTGCTTC) — within 0.2 log units, 0.0182
- CGTCTAGCTTGGGTTCTAACCTGTTGCAT (site CGTCTAGCTAT) — within 0.2 log units, 0.255
- CGTCTAGCTTGGGTTCTAACCTGTTGCAT (site TCGGCCTCTTA) — within 0.2 log units, 0.0729
- CGTGACCCTTGGGTTCTAACCTGTTGCTT (site CGGGACCCTAG) — within 0.2 log units, 0.0226
- CGTGACCCTTGGGTTCTAACCTGTTGCTT (site CGTGACCCTAA) — higher, 0.691
- CGTGAGACTTGGGTTCTAACCTGTTGCCT (site CGTAAGACTAG) — within 0.2 log units, 0.341
- CGTGAGACTTGGGTTCTAACCTGTTGCCT (site CGTCAGACTAG) — within 0.2 log units, 0.203
- CGTGAGACTTGGGTTCTAACCTGTTGCCT (site CGTGAGACTAG) — higher, 1.48
- CGTGAGACTTGGGTTCTAACCTGTTGCCT (site CGTTAGACTAG) — within 0.2 log units, 0.0487
- CGTGGAGCTTGGGTTCTAACCTGTTGCCA (site CGTCTAGCTTG) — within 0.2 log units, 0.136
- CGTGGAGCTTGGGTTCTAACCTGTTGCCA (site CGTGGAGCTTG) — higher, 0.836
- CGTGGTCCTTGGGTTCTAACCTGTTGCAT (site CGTGGTCCTAA) — higher, 0.414
- CGTGGTCCTTGGGTTCTAACCTGTTGCAT (site CGTGGTCCTAC) — higher, 0.809
- CGTGGTCCTTGGGTTCTAACCTGTTGCAT (site CGTGGTCCTAG) — within 0.2 log units, 0.398
- CGTGGTCCTTGGGTTCTAACCTGTTGCAT (site CGTGGTCCTAT) — higher, 1.25
- CGTGTAACTTGGGTTCTAACCTGTTGCTT (site CGAGCAACTAA) — within 0.2 log units, 0.0308
- CGTGTAACTTGGGTTCTAACCTGTTGCTT (site CGTGTAACTAA) — within 0.2 log units, 0.212
- CGTTATTCTTGGGTTCTAACCTGTTGCCT (site CGGAATTCTAG) — within 0.2 log units, 0.115
- CGTTATTCTTGGGTTCTAACCTGTTGCCT (site CGTTATTCTAG) — within 0.2 log units, 0.0118
- CGTTCACCTTGGGTTCTAACCTGTTGCAT (site ACAAATACTCC) — lower, 0.0056
- CGTTCACCTTGGGTTCTAACCTGTTGCAT (site CGTTCACCTAT) — higher, 0.499
- CGTTCCTCTTGGGTTCTAACCTGTTGCCT (site CATTCCTCTAG) — within 0.2 log units, 0.0798
- CGTTCCTCTTGGGTTCTAACCTGTTGCCT (site CCTTCCTCTAG) — within 0.2 log units, 0.016
- CGTTCCTCTTGGGTTCTAACCTGTTGCCT (site CGTTCCTCTAG) — higher, 0.519
- CGTTCCTCTTGGGTTCTAACCTGTTGCCT (site CTTTCCTCTAG) — within 0.2 log units, 0.0942
- CTAAAAGCTTGGGTTCTAACCTGTTGCAA (site CTAAAAGCTTT) — higher, 0.501
- CTAAAAGCTTGGGTTCTAACCTGTTGCAA (site GGCTGTCCTAC) — higher, 0.628
- CTAAAGACTTGGGTTCTAACCTGTTGCAC (site CCAAAGACTAT) — within 0.2 log units, 0.0891
- CTAAAGACTTGGGTTCTAACCTGTTGCAC (site CTAAAGACTGT) — higher, 1.42
- CTAAATACTTGGGTTCTAACCTGTTGCCT (site CTAAATACTAG) — within 0.2 log units, 0.17
- CTAAATACTTGGGTTCTAACCTGTTGCCT (site CTAAATACTTA) — within 0.2 log units, 0.0116
- CTAAATACTTGGGTTCTAACCTGTTGCGT (site CTAAATACTAC) — higher, 1.54
- CTAAATACTTGGGTTCTAACCTGTTGCGT (site CTACATTCTAC) — lower, 0.00955
- CTAAGAACTTGGGTTCTAACCTGTTGCGT (site CTAAGAACTAA) — within 0.2 log units, 0.0418
- CTAAGAACTTGGGTTCTAACCTGTTGCGT (site CTAAGAACTAC) — higher, 2.1
- CTAAGAACTTGGGTTCTAACCTGTTGCGT (site CTAAGAACTAG) — within 0.2 log units, 0.264
- CTAAGAACTTGGGTTCTAACCTGTTGCGT (site CTAAGAACTAT) — higher, 0.615
- CTAAGCGCTTGGGTTCTAACCTGTTGCCA (site CTAAGAGCTTG) — within 0.2 log units, 0.145
